Reference: PMC13114161 (Antibiotics, 2026)

How the values were obtained:
P. aeruginosa ATCC 27853 [1] = experiment: MIC and levofloxacin potentiation (broth microdilution); format: cell-based, Pseudomonas aeruginosa; conditions: ATCC 27853
Description: Once synthesized, the three fluorinated EPI analogs (TXA11114, TXA11164 and TXA12027) were first assayed for their antibacterial activities against P. aeruginosa ATCC 27853. They had MICs of 100, >200 and 100 µg/mL, respectively (Table 1). […] Particularly, the inactivity of TXA11164 was surprising as the pKa values of both the amines are similar to that in TXA11114.
(§1) MIC assays for potentiation of antimicrobial activity against P. aeruginosa were performed as described previously.

in vivo = conditions: female, CD-1, mouse, iv
Description: Thus, the safety and tolerability of TXA11114 was determined to find an optimum dosing capability. The maximum tolerated dose (MTD) of TXA11114 was assessed in female mice (CD-1, 6–8 weeks old) at the University of North Texas Health Science Center (UNTHSC). TXA11114 was administered IV to groups of three female mice. Mice were administered TXA11114 in the range 30–240 mg/kg (IV bolus). […] As doses are tolerated (not resulting in effects such as mortality, convulsions, or other severe morbidity), they are increased. Survival and general observations as to the tolerability of the administered dose started immediately and continued for a period of 48 h after each dose was recorded.

P. aeruginosa ATCC 27853 [2] = experiment: Neutropenic murine thigh infection model; format: in vivo, CD-1 mice; conditions: thigh or lung infection models
Description: Female CD-1 mice (6–8 weeks old; 22 ± 2 g) were obtained from Envigo Laboratories, quarantined for at least 3 days, and housed 5 per cage in accordance with the approved IACUC protocol (IACUC-2017-0049). Neutropenia was induced by intraperitoneal (IP) administration of cyclophosphamide (Cytoxan) at 150 mg/kg on day 4 and 100 mg/kg on day 1 prior to infection.
Mice were infected intramuscularly (IM) in the right thigh with 0.1 mL of bacterial suspension containing approximately 1 × 10^5–10^6 CFU/mL. […] At 2 h or 24 h post-infection, mice were euthanized by CO2 asphyxiation, and thighs were aseptically excised and placed in 2 mL sterile phosphate-buffered saline (PBS) on ice. Tissue homogenization was performed using a Polytron PT10-35 (12 mm aggregate, Kinematica, Malters, Switzerland).
Plates were incubated overnight at 37 °C, and colonies were enumerated the following day.

P. aeruginosa [3] = system: P. aeruginosa; set-up: method as in PMID 35052908, PMID 35740123; conditions: against P. aeruginosa; cited from earlier work
P. aeruginosa [4] = experiment: MIC potentiation of antimicrobial agents by EPIs; format: cell-based, Pseudomonas aeruginosa; conditions: for Fold difference of antibiotic MIC + TXA01182 / MIC of antibiotic + TXA01182: TXA01182 at […]; for Fold difference of antibiotic MIC + TXA09155 / MIC of antibiotic + TXA09155: TXA09155 at […]; for Fold difference of antibiotic MIC + TXA11114 / MIC of antibiotic + TXA11114: TXA11114 at […];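 for Fold difference of antibiotic MIC + TXA01182: TXA01182 tested at 6.25 µg/mL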;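 for Fold difference of antibiotic MIC + TXA09155: TXA09155 tested at 6.25 µg/mL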; for Fold difference of antibiotic MIC + TXA11114: TXA11114 at 6.25 µg/mL;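 for MIC of antibiotic + TXA01182: TXA01182 tested at 6.25 µg/mL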;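 for MIC of antibiotic + TXA09155: TXA09155 tested at 6.25 µg/mL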; for MIC of antibiotic + TXA11114: TXA11114 at 6.25 µg/mL
Description: In contrast, the activities of gentamicin and imipenem were unchanged in the presence of TXA11114 under the conditions tested. Although gentamicin can be transported by the MexXY efflux system, the absence of potentiation in this assay is not sufficient to draw conclusions regarding MexXY inhibition or overall efflux specificity.
as §1

[5] = system: P. aeruginosa K1119 (∆mexAB-oprM); experiment: Antibiotic MIC potentiation in efflux mutants; format: cell-based, Pseudomonas aeruginosa
Description: (§2) Next, the ability of TXA11114 to inhibit P. aeruginosa mutants overexpressing MexAB-OprM was evaluated. Loss of function mutations in nalB resulting in the overexpression of MexAB-OprM have been identified in P. aeruginosa clinical isolates and are associated with resistance to cephalosporins, fluoroquinolones and aminoglycosides. In theory, an EPI should reverse the antimicrobial susceptibility lost in bacteria-overexpressing efflux pumps. Thus, the TXA11114 EPI activity was studied using antibiotics that display efflux liabilities in this RND efflux pump (Table 5).
as §1

[6] = system: P. aeruginosa K1455 (↑mexAB-oprM); experiment: Antibiotic MIC potentiation in efflux mutants; format: cell-based, Pseudomonas aeruginosa
Description: as §2, §1

P. aeruginosa K767 (WT) = experiment: Antibiotic MIC potentiation in efflux mutants; format: cell-based, Pseudomonas aeruginosa
Description: as §2, §1

P. aeruginosa ATCC 27853 [7] = experiment: Membrane polarization assay DiOC2(3); format: cell-based, Pseudomonas aeruginosa; conditions: Pseudomonas aeruginosa, ATCC27853; positive control; read-out: IC50 (membrane potential, DiOC2(3))
Description: RND efflux pumps require an intact proton motive force across the inner membrane to mediate drug efflux. Accordingly, collapse of the membrane potential could indirectly disable efflux activity and result in apparent antibiotic potentiation. To determine whether TXA11114 dissipates the membrane potential of P. aeruginosa, membrane polarization was assessed using the fluorescent probe 3,3′-diethyloxacarbocyanine iodide (DiOC2(3)). DiOC2(3) accumulates in cells with polarized membranes, undergoing a concentration-dependent shift from green to red fluorescence due to dye stacking; membrane depolarization prevents this shift. […] CCCP and azithromycin were included as positive and negative controls, respectively. […] This discrepancy likely reflects a methodological limitation of the DiOC2(3) assay in Gram-negative bacteria. Specifically, EDTA treatment is required to transiently permeabilize the outer membrane to permit DiOC2(3) access to the cytoplasmic membrane (see Methods). While necessary for probe uptake, EDTA can sensitize cells to secondary perturbations and may exaggerate subtle fluorescence changes at supraphysiological compound concentrations.
P. aeruginosa membrane polarization assays were conducted as described previously using strain ATCC 27853. Briefly, mid-exponential phase (OD600 of 0.5) P. aeruginosa was pelleted by centrifugation at 3000× g for 10 min at room temperature. Cells were then resuspended in 1× PBS, treated with 10 mM EDTA for 5 min and then centrifuged at 300× g for 10 min to remove EDTA. EDTA-treated cells were pelleted and resuspended to an OD600 of 1.0 in assay resuspension buffer. A 6 mM DiOC2(3) stock in DMSO was added to cells for a final concentration of 30 µM. DiOC2(3)-loaded cells were then added to a 96-well black bottom microplate for a final volume of 200 µL. […] After 15 min incubation at 37 °C in dark, DiOC2(3) fluorescence was recorded using the SpectraMax iD5 spectrophotometer (Molecular Devices, San Jose, CA, USA) using 450 nm excitation. Red fluorescence intensity was recorded at 670 nm emission.

P. aeruginosa ATCC 27853 [8] = experiment: Intracellular ATP levels; format: cell-based, Pseudomonas aeruginosa; conditions: three hours post-treatment
Description: Further, a deviation from normal membrane function can affect the activity of respiratory components and diminish ATP synthesis. Thus, an indirect approach to assess a drug’s membrane effect is by monitoring cellular ATP levels after treatment. To exclude ATP depletion as a TXA11114 MoA, bacterial ATP levels were evaluated three hours post-treatment. […] Azithromycin was used as a negative control.
P. aeruginosa intracellular ATP levels were determined as described previously using an ATP determination kit (Invitrogen, Life Technologies, Carlsbad, CA, USA). Bacterial culture strain ATCC 27853 was grown to the mid-log phase (OD600 = 0.7), washed, and resuspended in the same volume of PBSM (1X PBS, 1mM MgCl2). […] After treatment, the cells were lysed in chloroform which was subsequently removed by boiling at 80 °C. The persistent ATP from cell lysate was measured in a 96-well black flat-bottom plate by measuring the luminescence. Luminescence was converted to concentration from standard curve. […] Error bars represent the standard deviation of triplicates.

Row | Compound | Fold MIC reduction [LVX/EPI-LVX] (P. aeruginosa ATCC 27853 [1]; EPI at […]) | MIC (P. aeruginosa ATCC 27853 [1]; Pseudomonas aeruginosa, ATCC27853, EPI alone, read-out: EPI MIC) | LVX MIC (+EPI) (P. aeruginosa ATCC 27853 [1]; levofloxacin MIC with EPI at […]) | MTD at 48 h (in vivo) | Improvement of levofloxacin efficacy in murine thigh or lung infection models (P. aeruginosa ATCC 27853 [2]) | Lowest concentration enhancing activity of monobactams, fluoroquinolones, sulfonamides and tetracyclines (P. aeruginosa [3]) | Fold difference of antibiotic MIC + TXA01182 (P. aeruginosa [4]) | MIC of antibiotic + TXA01182 (P. aeruginosa [4]) | Fold difference of antibiotic MIC + TXA09155 (P. aeruginosa [4]) | MIC of antibiotic + TXA09155 (P. aeruginosa [4]) | Fold difference of antibiotic MIC + TXA11114 (P. aeruginosa [4]) | MIC of antibiotic + TXA11114 (P. aeruginosa [4]) | MIC Ratio of Antibiotics Alone/(Antibiotics + […] TXA11114) [5] | MIC Ratio of Antibiotics Alone/(Antibiotics + […] TXA11114) [6] | MIC Ratio of Antibiotics Alone/(Antibiotics + […] TXA11114) (P. aeruginosa K767 (WT)) | Fold difference of antibiotic MIC + TXA11114 (P. aeruginosa [4]; listed as imipenem) | IC50 (P. aeruginosa ATCC 27853 [7]) | Cellular ATP level (P. aeruginosa ATCC 27853 [8])
1 | NCCC[C@@H](N)CNC(=O)c1cc2ccc(-c3ccc(F)cc3)cc2[nH]1 [TXA01182] | 8 fold | 100 µg/mL | 0.125 µg/mL | 12.5 mg/kg | neither TXA01182 nor TXA09155 improved levofloxacin efficacy | 6.25 µg/mL | – | – | – | – | – | – | – | – | – | – | – | –
2 | CO/N=C(\C(=O)N[C@@H]1C(=O)N2C(C(=O)[O-])=C(C[N+]3(C)CCCC3)CS[C@H]12)c1csc(N)n1 [Cefepime] | – | – | – | – | – | – | 2 fold | 1 µg/mL | 4 fold | 0.5 µg/mL | 4 fold | 0.5 µg/mL | 2 | 16 | 8 | – | – | –
3 | C[C@@H](O)[C@H]1C(=O)N2C(C(=O)O)=C(SCCN=CN)C[C@H]12 [Imipenem] | – | – | – | – | – | – | 1 fold | 4 µg/mL | 1 fold | 4 µg/mL | 1 fold | 4 µg/mL | 1 | 1 | 1 | unchanged | – | –
4 | N#CC(C#N)=NNc1cccc(Cl)c1 [CCCP, carbonyl cyanide 3-chlorophenylhydrazone] | – | – | – | – | – | – | – | – | – | – | – | – | – | – | – | – | 17 nM | significant depletion of ATP
